The text below walks through data of patent US20100004247A1, “COMBINATION COMPRISING A MEK INHIBITOR AND AN AURORA KINASE INHIBITOR 188” (AstraZeneca AB, priority 2007, published 2010).

Data set [1] can be described thus: Pro-drug conversion to active moiety in human plasma. In kind it is in vitro ADME.
Data set [2] has as its system Calu-6 human lung tumour xenografts. The data set can be described thus: In vivo combination study in the Calu-6 human lung cancer xenograft model (tumour growth inhibition). On the set-up: species or system female athymic mice (Swiss nu/nu genotype). The note with it: Day 35; AZD1152 150 mg/kg/day s.c. infusion 2 days; AZD6244 25 mg/kg twice daily oral 14 days; 24 h gap in sequences. Here is the method: To establish the in vivo efficacy of combination therapy of AZD1152 and AZD6244 in Calu-6 human lung xenograft model, experiments were conducted in female athymic mice (Swiss nu/nu genotype, ≧6 weeks of age). Calu-6 human lung tumour xenografts were established in mice by injecting 1×10^6 cells (100 μl volume containing 50% Matrigel®) subcutaneously in the dorsal flank. Tumour volumes were assessed using bilateral Vernier calliper measurement at least twice weekly and calculated using the formula (length×width)×√(length×width)×(π/6), where length was taken to be the longest diameter across the tumour and width the corresponding perpendicular. Mice were randomised into 4 treatment groups (10 mice/group) when the mean tumour volume reached approximately 0.2 cm^3. Following randomisation, mice were treated with drug vehicles for AZD1152 or AZD6244, AZD1152, AZD6244 or a combination of AZD1152 plus AZD6244 according to treatment schedules described below: […]
Tumour growth inhibition was assessed by comparison of the differences in tumour volume between control and treated groups on Day 35 of the study. The effects of combination treatment sequence were assessed by comparing any effect on tumour growth in the group of animals receiving AZD1152 and AZD6244 with tumour growth in the groups where animals received single agent therapy alone. […]

As for `CCN(CCCOc1ccc2c(Nc3cc(CC(=O)Nc4cccc(F)c4)n[nH]3)ncnc2c1)CCOP(=O)(O)O` [AZD1152, 2-{[3-({4-[(5-{2-[(3-fluorophenyl)amino]-2-oxoethyl}-1H-pyrazol-3-yl)amino]quinazolin-7-yl}oxy)propyl](ethyl)amino}ethyl dihydrogen phosphate], the “conversion of pro-drug to the active moiety AZD1152 HQPA” value in data set [1] is “rapidly and completely converted”. Also, the “growth inhibition of Calu-6 tumours compared to the vehicle-dosed group” value in data set [2] is recorded as 94.7%.

With `Cn1cnc2c(F)c(Nc3ccc(Br)cc3Cl)c(C(=O)NOCCO)cc21` [AZD6244, 6-(4-Bromo-2-chloro-phenylamino)-7-fluoro-3-methyl-3H-benzoimidazole-5-carboxylic acid (2-hydroxy-ethoxy)-amide], in data set [2], the “growth inhibition of Calu-6 tumours compared to the vehicle-dosed group” value turned out to be 57.8%.
